Species on record: Rattus norvegicus
Test: Open TG-GATES - Regimen: Single
Type: toxicity, organism-based, Sprague-Dawley
Set-up: regimen Single, gender Male, age 6 weeks
Conditions: in vivo, po, 6 mg/kg, route gavage, dose level Low; for APTT / Bas / Eos / Fbg / Hb / Ht / Lym / MCH / MCHC / MCV / Mono / Neu / PT / Plat / RBC / Ret / WBC: tissue Blood; for KIDNEY_L / KIDNEY_R / KIDNEY_TOTAL: tissue Kidney; for LIVER: tissue Liver; for A/G / ALP / ALT / AST / BUN / CRE / Ca / Cl / DBIL / GLC / IP / K / LDH / Na / PL / RALB / TBIL / TC / TG / TP / gamma-GTP: tissue Plasma

CC(C)NNC(=O)c1ccncc1 [IPRONIAZID]
TERMINAL_BW (3 h): 204.8 g
APTT (3 h): 22.1 s
Bas (3 h): 0%
Eos (3 h): 1%
Fbg (3 h): 317 mg/dL
Hb (3 h): 13.4 g/dL
Ht (3 h): 38.8%
Lym (3 h): 77%
MCH (3 h): 21.1 pg
MCHC (3 h): 34.5%
MCV (3 h): 61.2 fL
Mono (3 h): 1.8%
Neu (3 h): 20%
PT (3 h): 16.3 s
Plat (3 h): 129.7 x10_4/uL
RBC (3 h): 634.8 x10_4/ul
Ret (3 h): 7.5%
WBC (3 h): 72.5 x10_2/uL
KIDNEY_L (3 h): 1 g
KIDNEY_R (3 h): 1 g
KIDNEY_TOTAL (3 h): 2 g
LIVER (3 h): 9.7 g
A/G (3 h): 1.2
ALP (3 h): 1455.8 IU/L
ALT (3 h): 40.8 IU/L
AST (3 h): 83.8 IU/L
BUN (3 h): 13.4 mg/dL
CRE (3 h): 0.1 mg/dL
Ca (3 h): 10.6 mg/dL
Cl (3 h): 106.8 meq/L
DBIL (3 h): 0.002 mg/dL
GLC (3 h): 187.2 mg/dL
IP (3 h): 9 mg/dL
K (3 h): 4.1 meq/L
LDH (3 h): 208.2 IU/L
Na (3 h): 142 meq/L
PL (3 h): 132.4 mg/dL
RALB (3 h): 3.1 g/dL
TBIL (3 h): 0.016 mg/dL
TC (3 h): 67 mg/dL
TG (3 h): 73.2 mg/dL
TP (3 h): 5.6 g/dL
gamma-GTP (3 h): 1.4 IU/L
TERMINAL_BW (6 h): 201.3 g
APTT (6 h): 22.8 s
Bas (6 h): 0%
Eos (6 h): 0.6%
Fbg (6 h): 317 mg/dL
Hb (6 h): 13.1 g/dL
Ht (6 h): 38.4%
Lym (6 h): 78.8%
MCH (6 h): 20.9 pg
MCHC (6 h): 34.1%
MCV (6 h): 61.2 fL
Mono (6 h): 2.2%
Neu (6 h): 17.8%
PT (6 h): 15.6 s
Plat (6 h): 118.4 x10_4/uL
RBC (6 h): 627.2 x10_4/ul
Ret (6 h): 7.4%
WBC (6 h): 69.8 x10_2/uL
KIDNEY_L (6 h): 0.9 g
KIDNEY_R (6 h): 0.9 g
KIDNEY_TOTAL (6 h): 1.9 g
LIVER (6 h): 8.9 g
A/G (6 h): 1.2
ALP (6 h): 1305.2 IU/L
ALT (6 h): 36.8 IU/L
AST (6 h): 73.2 IU/L
BUN (6 h): 9.6 mg/dL
CRE (6 h): 0.2 mg/dL
Ca (6 h): 10.6 mg/dL
Cl (6 h): 106.8 meq/L
DBIL (6 h): 0.002 mg/dL
GLC (6 h): 182.4 mg/dL
IP (6 h): 9.2 mg/dL
K (6 h): 4.3 meq/L
LDH (6 h): 225.2 IU/L
Na (6 h): 141.6 meq/L
PL (6 h): 135.2 mg/dL
RALB (6 h): 3.1 g/dL
TBIL (6 h): 0.014 mg/dL
TC (6 h): 74.2 mg/dL
TG (6 h): 62.2 mg/dL
TP (6 h): 5.5 g/dL
gamma-GTP (6 h): 1 IU/L
TERMINAL_BW (9 h): 205.8 g
APTT (9 h): 22 s
Bas (9 h): 0%
Eos (9 h): 1%
Fbg (9 h): 323.2 mg/dL
Hb (9 h): 13.2 g/dL
Ht (9 h): 38.7%
Lym (9 h): 77.8%
MCH (9 h): 20.8 pg
MCHC (9 h): 34.1%
MCV (9 h): 60.9 fL
Mono (9 h): 2%
Neu (9 h): 18.6%
PT (9 h): 15.8 s
Plat (9 h): 120.2 x10_4/uL
RBC (9 h): 635.6 x10_4/ul
Ret (9 h): 7.8%
WBC (9 h): 99.2 x10_2/uL
KIDNEY_L (9 h): 0.9 g
KIDNEY_R (9 h): 1 g
KIDNEY_TOTAL (9 h): 1.9 g
LIVER (9 h): 8.7 g
A/G (9 h): 1.2
ALP (9 h): 1353 IU/L
ALT (9 h): 37.2 IU/L
AST (9 h): 72 IU/L
BUN (9 h): 12.8 mg/dL
CRE (9 h): 0.2 mg/dL
Ca (9 h): 10.4 mg/dL
Cl (9 h): 106.8 meq/L
DBIL (9 h): 0.004 mg/dL
GLC (9 h): 178.8 mg/dL
IP (9 h): 10 mg/dL
K (9 h): 4.2 meq/L
LDH (9 h): 172.6 IU/L
Na (9 h): 141.4 meq/L
PL (9 h): 130.6 mg/dL
RALB (9 h): 3 g/dL
TBIL (9 h): 0.014 mg/dL
TC (9 h): 74 mg/dL
TG (9 h): 72.2 mg/dL
TP (9 h): 5.5 g/dL
gamma-GTP (9 h): 1.4 IU/L
TERMINAL_BW (24 h): 218.2 g
APTT (24 h): 21.7 s
Bas (24 h): 0%
Eos (24 h): 1%
Fbg (24 h): 323.4 mg/dL
Hb (24 h): 13.2 g/dL
Ht (24 h): 38.3%
Lym (24 h): 83.8%
MCH (24 h): 21.2 pg
MCHC (24 h): 34.5%
MCV (24 h): 61.3 fL
Mono (24 h): 2.6%
Neu (24 h): 12.2%
PT (24 h): 16.6 s
Plat (24 h): 119.6 x10_4/uL
RBC (24 h): 624 x10_4/ul
Ret (24 h): 7.1%
WBC (24 h): 95 x10_2/uL
KIDNEY_L (24 h): 1 g
KIDNEY_R (24 h): 1 g
KIDNEY_TOTAL (24 h): 1.9 g
LIVER (24 h): 10.2 g
A/G (24 h): 1.2
ALP (24 h): 1506.4 IU/L
ALT (24 h): 43.2 IU/L
AST (24 h): 74.6 IU/L
BUN (24 h): 15.2 mg/dL
CRE (24 h): 0.2 mg/dL
Ca (24 h): 10.7 mg/dL
Cl (24 h): 106.4 meq/L
DBIL (24 h): 0.004 mg/dL
GLC (24 h): 179.8 mg/dL
IP (24 h): 7.4 mg/dL
K (24 h): 4.6 meq/L
LDH (24 h): 255 IU/L
Na (24 h): 141.6 meq/L
PL (24 h): 148.8 mg/dL
RALB (24 h): 3 g/dL
TBIL (24 h): 0.008 mg/dL
TC (24 h): 83.2 mg/dL
TG (24 h): 98.8 mg/dL
TP (24 h): 5.5 g/dL
gamma-GTP (24 h): 1.6 IU/L
